Data from patent US20170137433A1, “CRYSTALLINE, ANHYDROUS FORMS OF OXYMORPHONE HYDROCHLORIDE” (Endo Pharmaceuticals Inc., priority 2011, published 2017).
Counter-ions that a name gives are not always drawn.

Experiment: Solid-form stability of the polymorph (heat treatment / storage observation)
Format: physicochemical
Details: at room temperature and at elevated temperatures; solid form obtained by heating at 200° C. for 3-4 hours in a drying oven
Protocol: This polymorph was obtained by a heat treatment of either the above-described polymorph mixture or of oxymorphone hydrochloride monohydrate at 200° C. for a period of 3-4 hours in a drying oven.

## CN1CC[C@]23c4c5ccc(O)c4O[C@H]2C(=O)CC[C@@]3(O)[C@H]1C5 [second polymorph, crystalline, anhydrous hydrochloride salt of 4,5α-epoxy-3,14-dihydroxy-17-methylmorphinan-6-one]
  polymorphic form stability: stable at room temperature and at elevated temperatures
